Read-outs that look alike come from different tables or passages of the source.
Key:
[1] = system: scratching action induced by Compound 48/80; assay: Anti-pruritic activity test by application (Compound 48/80 scratching); assay type: in vivo, mouse (Crj:CD-1 (ICR)); conditions: Mus musculus, topical, read-out: Itching inhibition ratio % (Concentration %)
Method: 1) Preparation of the compound and the reagent: The compound being tested was dissolved in acetone (SIGMA). Compound 48/80 (SIGMA) was dissolved in physiological saline (m by Otsuka Pharmaceutical Co., Ltd.) so as to be 60 μg/mL.
2) Animals: Female Crj: CD-1 (ICR) mice of 6 to 10 age in week (Japan Charles Liver) were used as laboratory animals. The animals were fed in the barrier breeding room where […] in room temperature, 30 to 70% in humidity, and the light and shade condition existed every 12 hours and feed (CE-2: Japan Crea) and the drinking water were freely taken. The hair of dorsa (from the cervical region of the back to the center of the back) of the animals were cut with a hair clipper two days or more before the anti-pruritic activity is evaluated, those with no wound, rubefaction, and thickening of the skin on the dehaired part were chosen and supplied to the experiment on the day of the evaluation. 3) Evaluation procedures: The acetone solution of the compound being tested was applied by 50 μL on the dehaired parts of the mice with a pipeter. On the mice of the control group, 50 μL of acetone was applied. The 15 minutes later, 50 μL (corresponding to 3 μg) of Compound 48/80 solution was injected intradermally in the compound applied parts with the use of a injector (Terumo Corporation), the mice were individually put in five observation cages made of acrylate resin at once, and the scratching action (action of scratching the injection part by the hind leg) frequency during 30 minutes was measured. The evaluation was carried out in one group of 5 to 7 mice. 4) Data processing: The experiment results were shown by the mean values. The test of the significant difference of the compound applying group to the control group was conducted with Welch's t-test, and p<0.05 was assumed to be significant.

CB2 receptor [2] = molecular target: T1, CB2 receptor (Homo sapiens, UniProt P34972); assay: Human cannabinoid receptor bonding inhibition test ([3H]CP55940), CB2; assay type: binding; parameters: expressed in transfected cells; membrane fraction
CB1 receptor [3] = molecular target: T2, CB1 receptor (Homo sapiens, UniProt P21554); assay: Human cannabinoid receptor bonding inhibition test ([3H]CP55940), CB1; assay type: binding; parameters: expressed in transfected cells; membrane fraction
CB1 receptor [4] = molecular target: T2, CB1 receptor; assay: cAMP formation inhibition experiment through a cannabinoid receptor (forskolin stimulation), CB1; assay type: cell-based; parameters: expressed in transfected cells; host or cells: CHO cells
Method: A compound being tested was added in the CHO cell which had mad human CB1 or CB2 receptor reveal and incubated for 15 minutes, and then forskolin (the final concentration 4 μM, and manufactured by SIGMA Corp.) was added and the mixture was incubated for 20 minutes. After the reaction had been stopped by adding 1M hydrochloric acid, the amount of cAMP in the supernatant was measured with the use of Cyclic AMP kit (made by the CIS Diagnostic Corp.).

CB2 receptor [5] = molecular target: T1, CB2 receptor; assay: cAMP formation inhibition experiment through a cannabinoid receptor (forskolin stimulation), CB2; assay type: cell-based; parameters: expressed in transfected cells; host or cells: CHO cells
[6] = read-out: Agonist activity (nM) CB1
[7] = [3H]CP55940 0.5 nM, membrane preparation of CHO cells expressing CB1, Ki calculated from IC50, read-out: Binding activity (nM) CB1

T2 sequence (P21554 whole entry): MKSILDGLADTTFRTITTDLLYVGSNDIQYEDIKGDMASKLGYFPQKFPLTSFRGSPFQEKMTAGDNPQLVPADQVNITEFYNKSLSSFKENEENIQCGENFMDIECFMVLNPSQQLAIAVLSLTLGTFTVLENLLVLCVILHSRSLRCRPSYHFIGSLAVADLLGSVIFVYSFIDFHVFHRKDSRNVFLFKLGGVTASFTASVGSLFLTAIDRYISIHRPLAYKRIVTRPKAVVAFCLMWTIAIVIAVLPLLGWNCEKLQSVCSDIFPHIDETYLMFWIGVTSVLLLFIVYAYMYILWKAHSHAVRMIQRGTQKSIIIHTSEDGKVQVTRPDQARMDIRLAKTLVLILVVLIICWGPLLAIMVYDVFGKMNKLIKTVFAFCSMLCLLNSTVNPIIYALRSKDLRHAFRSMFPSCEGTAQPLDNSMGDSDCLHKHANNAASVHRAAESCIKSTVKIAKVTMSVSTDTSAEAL
T1 sequence (P34972 whole entry): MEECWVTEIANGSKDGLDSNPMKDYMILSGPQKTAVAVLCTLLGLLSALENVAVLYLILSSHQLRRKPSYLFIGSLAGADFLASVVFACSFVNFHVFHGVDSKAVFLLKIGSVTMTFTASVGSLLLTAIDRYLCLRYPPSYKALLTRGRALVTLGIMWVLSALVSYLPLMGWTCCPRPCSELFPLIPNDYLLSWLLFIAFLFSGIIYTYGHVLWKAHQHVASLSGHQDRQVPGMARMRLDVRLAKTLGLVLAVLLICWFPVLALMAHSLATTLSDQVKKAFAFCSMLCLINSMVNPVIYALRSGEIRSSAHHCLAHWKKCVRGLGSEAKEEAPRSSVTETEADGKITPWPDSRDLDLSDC

Work on `CCCCn1c2c(cc(C(=O)NCc3ccccc3)c1=O)CCCCCC2` [Compound 4-101, reference compound] yielded an inhibition in vivo at 5 % [1] of 7.5% and a Ki (CB2 receptor [2]) of 1.9 nM.
In the case of `CCCCn1c2c(cc(C(=O)NC3CCCCC3)c1=O)CCCCCC2` [Compound 10-035, reference compound], the inhibition in vivo at 5 % [1] is reported as 22%, the Ki (CB1 receptor [3]) is reported as 19 nM and the Ki (CB2 receptor [2]) is reported as 0.2 nM.
`CSC(=O)C(C)(C)NC(=O)c1cc2c(n(CC3CCCCC3)c1=O)CCCCCC2` [Compound I-001, 2-[(1-cyclohexylmethyl-2-oxo-1,2,5,6,7,8,9,10-octahydro-cycloocta[b]pyridine-3-carbonyl)-amino]-2-methyl-thiopropionic acid S-methyl ester] was tested, and the inhibition in vivo at 0.5 % [1] was 53%, the Ki (CB1 receptor [3]) was under 2 nM and the Ki (CB2 receptor [2]) was under 2 nM. The IC50 (CB1 receptor [4]; [6]) was under 2 nM.
With `CN(CCO)C(=O)C(C)(C)NC(=O)c1cc2c(n(CC3CCCCC3)c1=O)CCCCCC2` [Compound I-019, 1-cyclohexylmethyl-2-oxo-1,2,5,6,7,8,9,10-octahydro-cycloocta[b]pyridine-3-carboxylic acid {1-[(2-hydroxyethyl)-methyl-carbamoyl]-1-methyl-ethyl}-amide] the inhibition in vivo at 1 % [1] was 74%, the Ki (CB1 receptor [3]; [7]) was 2.9 nM and the Ki (CB2 receptor [2]) was under 2 nM. The IC50 (CB1 receptor [4]; [6]) was 8.1 nM.
In the case of `CCCCn1c2c(cc(C(=O)N[C@H](C(=O)OC)C(C)C)c1=O)CCCCCC2` [Compound I-111], the inhibition in vivo at 0.1 % [1] is reported as 55%, the Ki (CB1 receptor [3]) is reported as 3.5 nM and the Ki (CB2 receptor [2]) is reported as under 2 nM. For the same compound, the IC50 (CB1 receptor [4]; [6]) was under 2 nM.
Work on `CCCCn1c2c(cc(C(=O)NC3(C(=O)OC)CCCCC3)c1=O)CCCCCC2` [Compound I-124] yielded an inhibition in vivo at 0.5 % [1] of 49%, a Ki (CB1 receptor [3]) of 3.6 nM and a Ki (CB2 receptor [2]) of under 2 nM. It also gave an IC50 (CB1 receptor [4]; [6]) of under 2 nM.
In the case of `CCCc1c(CC)cc(C(=O)N[C@H](C(=O)OC)C(C)C)c(=O)n1CC1CCCCC1` [Compound I-133], the inhibition in vivo at 0.5 % [1] is reported as 56%, the Ki (CB1 receptor [3]) is reported as 5 nM and the Ki (CB2 receptor [2]) is reported as under 2 nM. For the same compound, the IC50 (CB1 receptor [4]; [6]) was 4 nM.
With `CCc1c(C)cc(C(=O)N[C@H](C(=O)OC)C(C)C)c(=O)n1CC1CCCCC1` [Compound I-134] the inhibition in vivo at 0.5 % [1] was 91%, the Ki (CB1 receptor [3]) was under 2 nM and the Ki (CB2 receptor [2]) was under 2 nM. The IC50 (CB1 receptor [4]; [6]) was under 2 nM.
In the case of `CCc1c(C)cc(C(=O)N[C@H](C(=O)OC)C(C)C)c(=O)n1Cc1ccc(F)cc1` [Compound I-196], the inhibition in vivo at 0.5 % [1] is reported as 47%, the Ki (CB1 receptor [3]) is reported as under 2 nM and the Ki (CB2 receptor [2]) is reported as under 2 nM. The IC50 (CB1 receptor [4]; [6]) was under 2 nM.
Work on `CCCCn1c2c(cc(C(=O)N[C@H](C(=O)OC)C(C)(C)C)c1=O)CCCCCC2` [Compound I-203] yielded an inhibition in vivo at 0.5 % [1] of 86%, a Ki (CB1 receptor [3]) of under 2 nM and a Ki (CB2 receptor [2]) of under 2 nM. For the same compound, the IC50 (CB1 receptor [4]; [6]) was under 2 nM.
In the case of `CCCCn1c(CCC)c(CC)cc(C(=O)N[C@H](C(=O)OC)C(C)(C)C)c1=O` [Compound I-211], the inhibition in vivo at 1.5 % [1] is reported as 70%, the Ki (CB1 receptor [3]) is reported as 2.4 nM and the Ki (CB2 receptor [2]) is reported as under 2 nM. The IC50 (CB1 receptor [4]; [6]) was under 2 nM.
`CCc1c(C)cc(C(=O)N[C@H](C(=O)OC)C(C)(C)C)c(=O)n1CC1CCCCC1` [Compound I-252] was tested, and the inhibition in vivo at 1.5 % [1] was 96%, the Ki (CB1 receptor [3]) was under 2 nM and the Ki (CB2 receptor [2]) was under 2 nM. For the same compound, the IC50 (CB1 receptor [4]; [6]) was under 2 nM.
`COC(=O)[C@@H](NC(=O)c1cc2c(n(Cc3ccc(F)cc3)c1=O)CCCCCC2)C(C)C` [Compound I-253] showed an inhibition in vivo at 1.5 % [1] of 70%, a Ki (CB1 receptor [3]) of under 2 nM and a Ki (CB2 receptor [2]) of under 2 nM. The IC50 (CB1 receptor [4]; [6]) was under 2 nM.
`COC(=O)C(C)(C)NC(=O)c1cc2c(n(Cc3ccc(F)cc3)c1=O)CCCCCC2` [Compound I-255] showed an inhibition in vivo at 1.5 % [1] of 93%, a Ki (CB1 receptor [3]) of 2.1 nM and a Ki (CB2 receptor [2]) of under 2 nM. For the same compound, the IC50 (CB1 receptor [4]; [6]) was under 2 nM.
`CCc1c(C)cc(C(=O)NC2(C(=O)O)CCCCC2)c(=O)n1Cc1ccc(F)cc1` [Compound I-493] was tested, and the Ki (CB1 receptor [3]) was over 2000 nM, the Ki (CB2 receptor [2]; [3H]CP55940 0.5 nM, membrane preparation of CHO cells expressing CB2, Ki calculated from IC50, read-out: Binding activity (nM) CB2) was 36 nM and the IC50 (CB2 receptor [5]; inhibition of forskolin (4 μM)-stimulated cAMP formation, CHO cells expressing human CB2, read-out: Agonist activity (nM) CB2) was 24 nM.
Work on `O=C(O)C1=C(NC(=O)c2cc3c(n(CC4CCCCC4)c2=O)CCCCCC3)CCCC1` [Compound X-126] yielded a Ki (CB1 receptor [3]) of 873 nM, a Ki (CB2 receptor [2]) of 31 nM and an IC50 (CB1 receptor [4]; [6]) of 131 nM. For the same compound, the IC50 (CB2 receptor [5]) was 35 nM.
In the case of `CCCCn1c2c(cc(C(=O)NC(CC)(CC)CC(=O)O)c1=O)CCCCCC2` [Compound X-128], the Ki (CB1 receptor [3]; [7]) is reported as 608 nM, the Ki (CB2 receptor [2]) is reported as 10 nM and the IC50 (CB1 receptor [4]) is reported as 152 nM. It also gave an IC50 (CB2 receptor [5]) of 3 nM.
Compound `CCc1c(C)cc(C(=O)Nc2nc(CC(=O)O)ns2)c(=O)n1CC1CCCCC1` [Compound X-133] has a Ki (CB1 receptor [3]; [7]) of over 2000 nM, a Ki (CB2 receptor [2]) of 5.5 nM and an IC50 (CB1 receptor [4]) of over 2000 nM. The IC50 (CB2 receptor [5]) was under 2 nM.
